In patent publication US12630492B2, “Cannabinoid derivatives” (CANOPY GROWTH CORPORATION, priority 2019, dated 2026):
pIC50: −log10 of the molar value.

What was measured:
human CB2 receptor = molecular target: T1, human CB2 receptor (Homo sapiens, UniProt P34972); assay: CB2 radioligand competitive binding assay ([3H]CP 55,940 displacement); conditions: for pIC50: [3H]CP 55,940 displacement, membranes of CHO-K1 cells expressing human CB2 receptor, read-out: CB2 IC50; for Selectivity CB2: fold difference between CB1 and CB2 binding, printed in column of receptor with higher affinity, 1.00 in both = same affinity
T1 construct: host or cells: CHO-K1 (Chinese hamster ovary) cells, stably transfected; membranes prepared in house
T1 sequence (P34972 whole entry): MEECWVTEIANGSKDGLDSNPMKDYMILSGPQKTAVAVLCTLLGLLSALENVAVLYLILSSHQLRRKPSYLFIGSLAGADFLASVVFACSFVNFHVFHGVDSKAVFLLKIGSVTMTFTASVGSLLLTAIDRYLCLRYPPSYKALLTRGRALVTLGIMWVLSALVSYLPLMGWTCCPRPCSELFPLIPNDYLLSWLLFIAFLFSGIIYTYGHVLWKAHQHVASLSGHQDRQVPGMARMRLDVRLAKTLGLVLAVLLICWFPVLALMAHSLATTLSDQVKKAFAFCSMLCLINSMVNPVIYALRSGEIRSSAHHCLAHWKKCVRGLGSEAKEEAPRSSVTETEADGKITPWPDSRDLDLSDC

human CB1 receptor = molecular target: T2, human CB1 receptor (Homo sapiens, UniProt P21554); assay: CB1 radioligand competitive binding assay ([3H]CP 55,940 displacement); conditions: [3H]CP 55,940 displacement, membranes of CHO-K1 cells expressing human CB1 receptor; read-out: CB1 IC50
T2 construct: host or cells: CHO-K1 (Chinese hamster ovary) cells, stably transfected; membranes prepared in house
T2 sequence (P21554 whole entry): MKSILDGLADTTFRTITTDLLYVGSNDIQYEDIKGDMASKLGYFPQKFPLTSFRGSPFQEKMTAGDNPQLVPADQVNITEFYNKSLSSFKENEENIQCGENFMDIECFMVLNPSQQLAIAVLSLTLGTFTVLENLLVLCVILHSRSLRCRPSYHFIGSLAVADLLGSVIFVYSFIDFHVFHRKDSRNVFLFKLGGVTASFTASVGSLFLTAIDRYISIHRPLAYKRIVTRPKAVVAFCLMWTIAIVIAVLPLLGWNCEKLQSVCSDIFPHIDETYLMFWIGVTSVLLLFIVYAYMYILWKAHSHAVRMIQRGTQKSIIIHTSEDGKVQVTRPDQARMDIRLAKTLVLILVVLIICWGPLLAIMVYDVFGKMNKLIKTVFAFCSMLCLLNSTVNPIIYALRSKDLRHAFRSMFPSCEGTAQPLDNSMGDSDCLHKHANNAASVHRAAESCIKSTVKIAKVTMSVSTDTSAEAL

Row | Compound | pIC50 (human CB2 receptor) | Selectivity CB2 (human CB2 receptor) | pIC50 (human CB1 receptor)
1 | C=C(C)C1CCC(C)=CC1c1c(OCN(C(=O)OC)c2ccccc2)cc(C(C)(C)CCCCCC)cc1OCN(C(=O)OC)c1ccccc1 (stereo not drawn) [20′d, dimethyl (((5′-methyl-4-(2-methyloctan-2-yl)-2′-(prop-1-en-2-yl)-1′,2′,3′,4′-tetrahydro-[1,1′-biphenyl]-2,6-diyl)bis(oxy))bis(methylene))bis(phenylcarbamate)] | 5.00 to 6.00 | 1.25 | < 5.00
2 | C=C(C)C1CCC(C)=CC1c1c(OCOC(=O)C(C)(C)C)cc(CCCCC)cc1OCOC(=O)C(C)(C)C (stereo not drawn) [8′d, ((5′-methyl-4-pentyl-2′-(prop-1-en-2-yl)-1′,2′,3′,4′-tetrahydro-[1,1′-biphenyl]-2,6-diyl)bis(oxy))bis(methylene) bis(2,2-dimethylpropanoate)] | 5.00 to 6.00 | 2.00 | 5.00 to 6.00
3 | CCCCCc1cc(OCOCCOC)c(C2C=C(C)CCC2)c(OCOCCOC)c1 (stereo not drawn) [2′c, 2′,6′-bis((2-methoxyethoxy)methoxy)-5-methyl-4′-pentyl-1,2,3,4-tetarhydro-1,1′-biphenyl] | > 7.30 | 6.38 | 6.00 to 7.30
